Reference: EPA's ToxRefDB 2
Blank lines part the entries; values can stand above or below the compound they belong to.

What was measured:
[1] = test system: rat; settings: Subchronic oral toxicity in rodents, wistar, Feed, dose end: 98 day, group: systemic
[2] = test system: rat; settings: Other (NonGuideline or Guideline Not Listed); sprague dawley; Oral; Gavage/Intubation; dose end: 1 day; group: cannot be grouped; systemic / in life observation / clinical signs / salivation + systemic / in life observation / clinical signs / urogenital staining
[3] = test system: dog; settings: Subchronic oral toxicity in nonrodent, beagle, Gavage/Intubation, dose end: 14 week, group: systemic
[4] = test system: rabbit; settings: Sub-acute repeat dose toxicity; Oral; Gavage/Intubation; dose end: 5 day; group: systemic; systemic / in life observation / food consumption / food consumption
[5] = test system: rabbit; settings: Sub-acute repeat dose toxicity, Oral, Gavage/Intubation, dose end: 5 day, group: systemic
[6] = test system: rat; settings: Subchronic oral toxicity in rodents, wistar, [Not Specified], dose end: 6 month
[7] = test system: rat; settings: Chronic toxicity; wistar; Oral; Feed; dose end: 92 week; group: cholinesterase; cholinesterase / cholinesterase / cholinesterase / erythrocyte cholinesterase (che) + cholinesterase / cholinesterase / cholinesterase / …
[8] = test system: dog; settings: Chronic toxicity, beagle, Oral, Feed, dose end: 52 week
[9] = test system: rat; settings: Prenatal developmental toxicity study, sprague dawley, Oral, Gavage/Intubation, dose end: 15 GD
[10] = systemic / in life observation / body weight / body weight gain + systemic / in life observation / clinical signs / wetness + systemic / …
[11] = systemic / clinical chemistry / chloride / chloride + systemic / clinical chemistry / phosphorus / phosphorus + systemic / clinical …
[12] = systemic / clinical chemistry / phosphorus / phosphorus + systemic / pathology microscopic / bone / [other]
[13] = systemic / in life observation / body weight / body weight + systemic / in life observation / food consumption / food consumption
[14] = systemic / in life observation / food consumption / food consumption
[15] = group: cholinesterase, cholinesterase / cholinesterase / cholinesterase / brain cholinesterase (che) + cholinesterase / cholinesterase / cholinesterase / …
[16] = group: systemic, systemic / clinical chemistry / glucose / glucose + systemic / organ weight / liver / nos + systemic / organ weight / liver / relative to …
[17] = group: systemic, systemic / organ weight / brain / nos + systemic / organ weight / kidney / nos
[18] = group: cholinesterase, cholinesterase / cholinesterase / cholinesterase / plasma cholinesterase (che)
[19] = group: systemic, systemic / pathology microscopic / lymph node / hemorrhage
[20] = group: systemic, systemic / pathology microscopic / lymph node / hemorrhage + systemic / pathology microscopic / lymph node / hyperplasia
[21] = group: developmental, developmental / developmental malformation / bone / short
[22] = group: maternal, systemic / in life observation / body weight / body weight + systemic / in life observation / body weight / body weight gain + systemic / in…

Structure (SMILES): Oc1cc(Cl)c(Cl)cc1Cl [2,4,5-Trichlorophenol]
LOAEL [1, 10]: > 1000 mg/kg/day
NEL [1, 10]: 100 mg/kg/day
NOAEL [1, 10]: ≥ 1000 mg/kg/day
LEL ([1]; systemic / in life observation / clinical signs / wetness + systemic / pathology microscopic / kidney / degeneration + systemic / pathology …): 300 mg/kg/day

LEL [2]: 2000 mg/kg/day
NEL [2]: < 2000 mg/kg/day
Structure (SMILES): Cc1ncc([C@@H](CCCCCCc2ccc3c(n2)NCCC3)CC(=O)O)cn1
LOAEL [2]: > 2000 mg/kg/day
NOAEL [2]: ≥ 2000 mg/kg/day
LOAEL [3, 11]: > 45 mg/kg/day
NOAEL [3, 11]: ≥ 45 mg/kg/day
LEL [3, 12]: 5 mg/kg/day
NEL [3, 12]: < 5 mg/kg/day

Structure (SMILES): O=C(N[C@@H](Cc1ccccc1)[C@@H](O)C(=O)N1C[C@@H](O)[C@@H](O)C1)c1cc2cc(Cl)ccc2[nH]1 [Ingliforib]
LEL [4]: 250 mg/kg/day
LOAEL [4]: > 500 mg/kg/day
NEL [4]: < 250 mg/kg/day
NOAEL [4]: ≥ 500 mg/kg/day
LOAEL [5, 13]: > 500 mg/kg/day
NOAEL [5, 13]: ≥ 500 mg/kg/day
LEL [5, 14]: 50 mg/kg/day
NEL [5, 14]: < 50 mg/kg/day

Structure (SMILES): COP(=S)(OC)Oc1ccc([N+](=O)[O-])c(C)c1 [Fenitrothion]
LEL [6, 15]: 2 mg/kg/day
LOAEL [6, 15]: 9.16 mg/kg/day
NEL [6, 15]: 0.64 mg/kg/day
NOAEL [6, 15]: 1.83 mg/kg/day
LOAEL [6, 16]: 2 mg/kg/day
NOAEL [6, 16]: 0.64 mg/kg/day
LEL [6, 17]: 0.59 mg/kg/day
NEL [6, 17]: < 0.59 mg/kg/day
LEL [7]: 0.27 mg/kg/day
LOAEL [7]: 0.27 mg/kg/day
NEL [7]: 0.128 mg/kg/day
NOAEL [7]: 0.128 mg/kg/day
LEL [8, 18]: 0.25 mg/kg/day
LOAEL [8, 18]: 0.25 mg/kg/day
NEL [8, 18]: 0.125 mg/kg/day
NOAEL [8, 18]: 0.125 mg/kg/day
LEL [8, 19]: 0.25 mg/kg/day
LOAEL [8, 19]: 0.25 mg/kg/day
NEL [8, 20]: 0.125 mg/kg/day
NOAEL [8, 20]: 0.125 mg/kg/day
LEL [9, 21]: 25 mg/kg/day
LOAEL [9, 21]: 25 mg/kg/day
NEL [9, 21]: 8 mg/kg/day
NOAEL [9, 21]: 8 mg/kg/day
LEL [9, 22]: 25 mg/kg/day
LOAEL [9, 22]: 25 mg/kg/day
NEL [9, 22]: 8 mg/kg/day
NOAEL [9, 22]: 8 mg/kg/day
